Measurements as given in patent US20240174638A1, “HETEROARYL DERIVATIVES AS APELIN RECEPTOR AGONISTS” (RESEARCH TRIANGLE INSTITUTE, priority 2021, published 2024).

Tested on: LAD-ligated male C57BI/6 mice (myocardial infarction)
Assay: Cardiac function after coronary artery (LAD) ligation, echocardiography
Format: in vivo, mouse
Excerpt: Adult male C57BI/6 mice, 3 months old, were purchased from Jackson Laboratories and acclimated for 3 or more days in standard housing. All mice underwent twice daily intra-gastric administration of physiologic saline for 7 days pre-operatively (acclimation period). They also underwent standard B- and M-mode echocardiographic (ECHO) imaging (VisualSonics Vevo 2100) of the left heart under conscious restraint, 1-5 days prior to surgery.
Under ketamine/xylazine anesthesia, mice were intubated and ventilated, then incised through the left thoracic wall between the 3rd and 4th ribs to expose the heart. For ligation of the left anterior descending coronary artery (LAD), an 8-0 nylon suture was inserted under microscopic view (Wild/Leica operating microscope), placing and tying the ligature at a point 1 mm distal to the point where the artery emerges from the edge of the left atrium. Confirmation was provided by clear blanching of the downstream ventricle wall. Control sham-treated mice underwent needle and 8-0 suture passage under the coronary artery but with suture removal without ligation. The wound was closed with 6-0 suture in two layers (muscle and skin, respectively) and mice were recovered on a warming blanket. They received buprenorphine intraoperatively and twice daily postoperatively for 48 hours, by subcutaneous injection (50 ug/kg body weight).
A total of 48 mice entered the study. Eight mice underwent sham surgery, and these mice received vehicle treatment after surgery. 40 mice underwent LAD ligation, with 20 in each treatment group. Treatment was by oral gavage (intra-gastric administration) at 10 mL/kg body weight, twice daily (7-9 am and 4-6 pm), starting 1-2 hours after surgery and continuing until study termination. Treatment was either with EXAMPLE 22 at a concentration of 3 mg/mL (30 mg/kg) or vehicle for the test agent.
Echocardiography was done under brief, conscious restraint using a VisualSonics Vevo 2100 ultrasound machine, pre-operatively and at 2 and 4 weeks postoperatively. Standard B-mode and M-mode ultrasound imaging was captured at each imaging session. Echocardiographic images were analyzed for left ventricular function, measuring the interventricular septal thickness, internal ventricular cavity dimension, and posterior wall thickness at both diastole and systole from M-mode images at the level of the papillary muscles. The left ventricle ejection fraction and fractional shortening were calculated from these values:
Ejection Fraction (%)=100×[LVIDd^3−LVIDs^3]/LVIDd^3Fractional Shortening (%)=100×[LVIDd−LVIDs]/LVIDd, • where LVID=left ventricle inner diameter (internal ventricular cavity dimension), d=diastole, s=systole
After the 4-week ECHO imaging, mice were anesthetized and a terminal blood draw was taken from the abdominal aorta into 3.8% citrate (9:1), and the plasma was obtained by centrifugation and frozen. Mice were then euthanized (anesthesia overdose followed by cervical dislocation) and the hearts were weighed and the area of infarction was visually measured with t ruler for cranial-caudal and for lateral axes lengths of the approximately oval infarction zone (ligated hearts only). The hearts, and both kidneys, were then immersion-fixed in neutral-buffered formalin for subsequent histopathological evaluation. Plasma, kidney, and heart specimens were returned to Study Sponsor for further evaluation. The time between the last drug dosing and the blood draw was recorded, for future dose-response evaluation by Study Sponsor.
Summary statistics by “treatment” were provided for the change from baseline to week 2 and change from baseline to week 4 where baseline was defined as the pre-echos time-point. For each parameter, the mean “treatment” difference between “Example 22” and “Vehicle” was analyzed using a 2-sample t-test. The analysis was conducted using SAS Version 9.4 via PROC TTEST under unequal variances for the “treatments” using the Satterthwaite method. […]

[1] = Ex 22 vs Vehicle, LAD-ligated mice, 30 mg/kg p.o. twice daily
[2] = LAD-ligated mice, 30 mg/kg p.o. twice daily

For `O=C(O)C[C@H](CCN1CCCC(F)(F)C1)NC(=O)c1cc(-c2ccccc2C(F)(F)F)n(-c2nccs2)n1` [Example 22, (3S)-5-(3,3-difluoropiperidin-1-yl)-3-{[1-(1,3-thiazol-2-yl)-5-[2-(trifluoromethyl)phenyl]-1H-pyrazol-3-yl]formamido}pentanoic acid], the “deaths in ligated group” value (30 mg/kg p.o. twice daily, deaths between 3 and 11 days postoperatively, vehicle 7/20) was 2/20, the ejection fraction (4 weeks post-treatment) was “Statistically significant improvement” and the “EF, Change from baseline, Week 2, Difference” value [1] was 4.81%. For the same molecule, the “EF, Change from baseline, Week 4, Difference” value [1] was 10.70%, the “FS, Change from baseline, Week 2, Difference” value [1] was 4.21% and the “FS, Change from baseline, Week 4, Difference” value [1] was 7.17%. The “Heart Rate, Change from baseline, Week 2, Difference” value [1] was 11.43, the “Heart Rate, Change from baseline, Week 4, Difference” value [1] was −6.42 and the “IVS d, Change from baseline, Week 2, Difference” value [1] was 0.40. For the same molecule, the “IVS d, Change from baseline, Week 4, Difference” value [1] was 0.49, the “IVS s, Change from baseline, Week 2, Difference” value [1] was 0.47 and the “IVS s, Change from baseline, Week 4, Difference” value [1] was 0.56. For the same molecule, the “LV Mass corrected, Change from baseline, Week 2, Difference” value [1] was 18.64, the “LV Mass corrected, Change from baseline, Week 4, Difference” value [1] was 7.38 and the “LV Mass, Change from baseline, Week 2, Difference” value [1] was 23.30. The “LV Mass, Change from baseline, Week 4, Difference” value [1] was 9.23, the “LV VoI d, Change from baseline, Week 2, Difference” value [1] was −5.56 and the “LV VoI d, Change from baseline, Week 4, Difference” value [1] was −29.03. The “LV VoI s, Change from baseline, Week 2, Difference” value [1] was −1.67, the “LV VoI s, Change from baseline, Week 4, Difference” value [1] was −22.79 and the “LVID d, Change from baseline, Week 2, Difference” value [1] was −0.23. For the same molecule, the “LVID d, Change from baseline, Week 4, Difference” value [1] was −0.70, the “LVID s, Change from baseline 2, Week 2, Difference” value [1] was −0.22 and the “LVID s, Change from baseline, Week 4, Difference” value [1] was −0.74. The “LVPW d, Change from baseline, Week 2, Difference” value [1] was 0.03, the “LVPW d, Change from baseline, Week 4, Difference” value [1] was 0.20 and the “LVPW s, Change from baseline, Week 2, Difference” value [1] was 0.09. The “LVPW s, Change from baseline, Week 4, Difference” value [1] was 0.38, the “Weight, Change from baseline, Week 2, Difference” value [1] was 0.21 and the “Weight, Change from baseline, Week 4, Difference” value [1] was 0.26. For the same molecule, the “EF, Change from baseline, Week 2, Mean” value [2] was −34.17%, the “EF, Change from baseline, Week 2, Median” value [2] was −36.15% and the “EF, Change from baseline, Week 4, Mean” value [2] was −38.46%. The “EF, Change from baseline, Week 4, Median” value [2] was −37.79%, the “FS, Change from baseline, Week 2, Mean” value [2] was −25.71% and the “FS, Change from baseline, Week 2, Median” value [2] was −27.07%. For the same molecule, the “FS, Change from baseline, Week 4, Mean” value [2] was −28.24%, the “FS, Change from baseline, Week 4, Median” value [2] was −28.24% and the “Heart Rate, Change from baseline, Week 2, Mean” value [2] was 20.04. For the same molecule, the “Heart Rate, Change from baseline, Week 2, Median” value [2] was 40.66, the “Heart Rate, Change from baseline, Week 4, Mean” value [2] was 4.65 and the “Heart Rate, Change from baseline, Week 4, Median” value [2] was 11.40. For the same molecule, the “IVS d, Change from baseline, Week 2, Mean” value [2] was −0.03, the “IVS d, Change from baseline, Week 2, Median” value [2] was 0.02 and the “IVS d, Change from baseline, Week 4, Mean” value [2] was 0.10. The “IVS d, Change from baseline, Week 4, Median” value [2] was 0.12, the “IVS s, Change from baseline, Week 2, Mean” value [2] was −0.17 and the “IVS s, Change from baseline, Week 2, Median” value [2] was −0.24. For the same molecule, the “IVS s, Change from baseline, Week 4, Mean” value [2] was −0.02, the “IVS s, Change from baseline, Week 4, Median” value [2] was 0.11 and the “LV Mass corrected, Change from baseline, Week 2, Mean” value [2] was 54.81. The “LV Mass corrected, Change from baseline, Week 2, Median” value [2] was 63.28, the “LV Mass corrected, Change from baseline, Week 4, Mean” value [2] was 66.14 and the “LV Mass corrected, Change from baseline, Week 4, Median” value [2] was 66.57. The “LV Mass, Change from baseline, Week 2, Mean” value [2] was 68.51, the “LV Mass, Change from baseline, Week 2, Median” value [2] was 79.11 and the “LV Mass, Change from baseline, Week 4, Mean” value [2] was 82.67. The “LV Mass, Change from baseline, Week 4, Median” value [2] was 83.21, the “LV VoI d, Change from baseline, Week 2, Mean” value [2] was 39.76 and the “LV VoI d, Change from baseline, Week 2, Median” value [2] was 38.79. The “LV VoI d, Change from baseline, Week 4, Mean” value [2] was 53.15, the “LV VoI d, Change from baseline, Week 4, Median” value [2] was 51.79 and the “LV VoI s, Change from baseline, Week 2, Mean” value [2] was 33.74. For the same molecule, the “LV VoI s, Change from baseline, Week 2, Median” value [2] was 33.90, the “LV VoI s, Change from baseline, Week 4, Mean” value [2] was 45.96 and the “LV VoI s, Change from baseline, Week 4, Median” value [2] was 39.02. The “LVID d, Change from baseline, Week 2, Mean” value [2] was 1.11, the “LVID d, Change from baseline, Week 2, Median” value [2] was 1.09 and the “LVID d, Change from baseline, Week 4, Mean” value [2] was 1.36. The “LVID d, Change from baseline, Week 4, Median” value [2] was 1.45, the “LVID s, Change from baseline 2, Week 2, Mean” value [2] was 1.62 and the “LVID s, Change from baseline 2, Week 2, Median” value [2] was 1.69. The “LVID s, Change from baseline, Week 4, Mean” value [2] was 1.93, the “LVID s, Change from baseline, Week 4, Median” value [2] was 1.92 and the “LVPW d, Change from baseline, Week 2, Mean” value [2] was 0.09. For the same molecule, the “LVPW d, Change from baseline, Week 2, Median” value [2] was 0.13, the “LVPW d, Change from baseline, Week 4, Mean” value [2] was −0.00 and the “LVPW d, Change from baseline, Week 4, Median” value [2] was 0.00. For the same molecule, the “LVPW s, Change from baseline, Week 2, Mean” value [2] was −0.29, the “LVPW s, Change from baseline, Week 2, Median” value [2] was −0.30 and the “LVPW s, Change from baseline, Week 4, Mean” value [2] was −0.39. The “LVPW s, Change from baseline, Week 4, Median” value [2] was −0.35, the “Weight, Change from baseline, Week 2, Mean” value [2] was −0.13 and the “Weight, Change from baseline, Week 2, Median” value [2] was −0.30. For the same molecule, the “Weight, Change from baseline, Week 4, Mean” value [2] was 0.89, the “Weight, Change from baseline, Week 4, Median” value [2] was 0.70 and the “cardiac function after MI” value (compared to vehicle treated animals, 30 mg/kg p.o. twice daily) was “improved cardiac fraction”.
